Data set [1] has as its system DSS-induced colitis. Briefly: DSS-induced colitis in mice: TCS with or without GUSi (colon length, histology, FACS, qRT-PCR). Format: in vivo. The following applies: for cd45+(%) / f4/80+ (%) / gr-1+ (%) / Il-6 / Il-17 / Il-23 / Mcp1 / Tnf-α / HE / colon length (cm): DSS colitis mice, individual animals; for cd45+(%) / f4/80+ (%) / gr-1+ (%): FACS, Fig.5d; for Il-6 / Il-17 / Il-23 / Mcp1 / Tnf-α: gene expression, Fig.5e; for HE: histology score, Fig.5c; for colon length (cm): Fig.5b. The text has this: After another 3 weeks, the mice were stimulated with 2% DSS (molecular weight = 36–50 KDa, MP Biomedicals, Solon, OH) in drinking water for 6 days to induce colitis. At end of the experiment, the mice were sacrificed for analysis.
Total RNA of colon tissues and MC38 cells were isolated using Trizol reagent (Ambion) according to the manufacturer’s instruction. RNA was reverse transcribed into cDNA using the High Capacity cDNA Reverse Transcription kit (Applied Biosystem) according to the manufacturer’s instructions. In all, 20 μL PCR reactions were prepared using the Maxima SYBR Green Master Mix (Thermo Fisher Scientific), and qPCR was carried out using a DNA Engine Opticon System (Bio-Rad Laboratories). Mouse-specific primer sequences (Thermo Fisher Scientific) used to detect inflammatory biomarkers are listed in Supplementary Table S6. Gapdh expression was used as an internal control.
Distal colon tissues were dissected, washed with cold PBS, and digested with Hank’s balanced salt solution (HBSS, Lonza) supplemented with 1 mM dithiothreitol (DTT) and 5 mM EDTA at 4 °C (colon […] cells). The released cells were stained with FITC-conjugated anti-mouse CD45 (BioLegend, Clone: 30-F11), PerCP/Cy5.5-conjugated anti-mouse F4/80 (BioLegend, Clone: BM8), and PE/Cy7-conjugated anti-mouse Ly-6G/Ly-6C (GR-1) (BioLegend, Clone: RB6-8C5) with a 1:100 diluted solution. Cells were stained with Zombie Violet^TM dye (Zombie Violet^TM Fixable Viability Kit; BioLegend) according to the manufacturer’s instructions to exclude dead cells. Gating and cell identification strategies are as follows: briefly, cell doublets and clumps were eliminated using FSC-A gating and debris was eliminated using FSC-A vs SSC-A. Dead cells were gated out using Zombie Violet™ dye. Flow cytometry data were acquired on a BD LSR Fortessa^TMcell analyzer (Becton Dickinson, Franklin Lakes, NJ) and analyzed using FlowJo software (FlowJo, LLC). Gating strategies used for the identification of major immune cell populations are shown in Supplementary Fig. S17.
The dissected colon tissues were fixed in 10% neutral buffered formalin (Thermo Fisher Scientific) for 48 h. After dehydration, the tissues were embedded in paraffin and sliced ([…]) by Rotary Microtome (Thermo Fisher Scientific). The slices were dewaxed in serial xylene and rehydrated through ethanol solutions, stained with hematoxylin and eosin (Sigma-Aldrich), and images were obtained under 200× magnification (BZ-X700 microscope, Keyence, Itasca, IL). The histologic scores were evaluated by a blinded observer according to the following measures: crypt architecture, degree of inflammatory cell infiltration, muscle thickening, goblet cell depletion, and crypt abscess. The histologic damage score is the sum of each individual score.
A general note: In qPCR the cycle at which signal appears reflects the starting amount.

For data set [2] the following is noted: cited from earlier work.
In data set [3] the test system is Clostridiales sp. GUS. Briefly: In vitro IC50 assay (TCS-G to TCS conversion, HPLC). It is filed as biochemical. To be noted: for Clostridiales sp. GUS % inhibition: Fig. 4c, triplicate. How it is done:
(§1) Reaction mixtures containing 10 µL GUS (10 nM final), 10 µL TCS-G (200 µM final), 5 µL inhibitor (various concentrations), and 25 µL buffer (50 mM HEPES, 50 mM NaCl, various pH) or (50 mM sodium acetate, 50 mM NaCl, various pH) were incubated for 10 min and quenched with 50 µL 25% trichloroacetic acid. Samples were centrifuged 10 min at 16,000 × g, and the supernatant was analyzed using the method described for the catalytic efficiency assay. Inhibition was calculated by the equation below:1 %inhibition=100×(1−(AUCinh−AUCmax)/(AUCmin−AUCmax)) where AUCmin is the signal of the uninhibited reaction, AUCmax is the signal of the 100% inhibited reaction, and AUCinh is the signal of the reaction at a given concentration of inhibitor. Percent inhibition values were plotted against the log of inhibitor concentration, and GraphPad Prism 8.0 was used to determine IC50 values.

In data set [4] the target is T1, R. hominis 3 GUS (Roseburia hominis, UniProt A0A395V874).
T1 sequence (A0A395V874 1-734): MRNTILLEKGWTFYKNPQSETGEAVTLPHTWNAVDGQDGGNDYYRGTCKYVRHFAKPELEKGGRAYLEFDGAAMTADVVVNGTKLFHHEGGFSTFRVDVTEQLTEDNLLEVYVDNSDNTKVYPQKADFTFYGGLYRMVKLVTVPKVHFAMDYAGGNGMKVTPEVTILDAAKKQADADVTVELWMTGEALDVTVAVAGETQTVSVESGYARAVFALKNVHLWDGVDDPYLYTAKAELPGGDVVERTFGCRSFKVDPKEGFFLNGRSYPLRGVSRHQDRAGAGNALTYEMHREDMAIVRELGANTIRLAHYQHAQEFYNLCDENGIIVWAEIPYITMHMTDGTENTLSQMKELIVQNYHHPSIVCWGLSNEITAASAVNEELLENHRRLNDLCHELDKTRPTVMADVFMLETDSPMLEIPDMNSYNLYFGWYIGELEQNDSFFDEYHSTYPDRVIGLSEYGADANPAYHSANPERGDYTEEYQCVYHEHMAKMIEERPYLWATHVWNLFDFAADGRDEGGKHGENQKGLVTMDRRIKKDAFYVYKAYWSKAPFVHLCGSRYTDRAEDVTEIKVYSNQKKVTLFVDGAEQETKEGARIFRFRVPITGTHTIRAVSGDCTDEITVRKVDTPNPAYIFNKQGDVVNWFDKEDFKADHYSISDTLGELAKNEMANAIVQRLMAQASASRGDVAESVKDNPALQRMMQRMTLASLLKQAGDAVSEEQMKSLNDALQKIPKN
The description is as above. Format: biochemical. How it is done: as §1

The target in data set [5] is Eubacterium sp. CAG: 76 GUS (Eubacterium sp. CAG:76, UniProt Z9TO06ZFY0). The description is as above. To be noted: Fig. 4c, triplicate. It is filed as biochemical.
Eubacterium sp. CAG: 76 GUS, sequence (Z9TO06ZFY0 1-737): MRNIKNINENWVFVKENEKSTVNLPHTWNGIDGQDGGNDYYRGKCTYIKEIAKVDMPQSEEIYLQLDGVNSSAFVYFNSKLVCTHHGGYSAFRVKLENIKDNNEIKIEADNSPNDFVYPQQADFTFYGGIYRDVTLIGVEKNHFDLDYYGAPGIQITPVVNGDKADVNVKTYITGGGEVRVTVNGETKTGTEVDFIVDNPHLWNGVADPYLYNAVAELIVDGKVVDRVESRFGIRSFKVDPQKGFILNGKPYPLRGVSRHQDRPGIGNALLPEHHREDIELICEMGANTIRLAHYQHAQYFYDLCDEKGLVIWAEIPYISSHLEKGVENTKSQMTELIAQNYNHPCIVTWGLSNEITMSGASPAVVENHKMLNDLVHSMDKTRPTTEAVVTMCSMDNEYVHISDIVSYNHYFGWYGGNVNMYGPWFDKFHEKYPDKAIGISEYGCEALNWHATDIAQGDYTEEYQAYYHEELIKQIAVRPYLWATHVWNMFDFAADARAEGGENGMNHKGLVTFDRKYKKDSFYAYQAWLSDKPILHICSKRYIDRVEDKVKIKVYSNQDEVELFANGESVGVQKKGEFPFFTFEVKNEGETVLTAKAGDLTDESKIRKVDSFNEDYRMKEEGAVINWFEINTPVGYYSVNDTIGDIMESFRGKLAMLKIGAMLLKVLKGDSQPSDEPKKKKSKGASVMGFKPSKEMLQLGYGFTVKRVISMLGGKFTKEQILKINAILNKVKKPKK
Data set [6] relates to E. coli. Details: method as in PMID 30062115. The following applies: cited from earlier work.
The subject of data set [7] is fecal microbiota. Briefly: 16S rRNA sequencing of fecal microbiota of GUSi-treated mice. The following applies: 1 mg/kg GUSi via oral gavage.
The mark [8] stands for this setting: 80 ppm TCS via diet vs vehicle, DSS-induced colitis, without GUSi.
Setting [9] is: GUSi 33.3333 uM, Fig. 4c, triplicate.

SMILES strings stand for the structures. Values joined by “and” are separate entries in the source; they are usually repeats but may differ in a detail not shown here. Identical values can stand only once. Bounds are passed on as bounds.

Turning to `Oc1cc(Cl)ccc1Oc1ccc(Cl)cc1Cl` [TCS, Triclosan], in data set [1] (setting [8]), the colon length result is recorded as “reduced”; the “colonic infiltration of immune cells (CD45+ leukocytes, CD45+ F4/80+ macrophages, CD45+ Gr1+ neutrophils)” value is on record as “enhanced”; the crypt damage entry is recorded as “more severe”; the “expression of pro-inflammatory genes (Tnf-a, Mcp-1, Il-6, Il-17, Il-23) in the colon” value is “increased”. For the same compound, in data set [1], the “cd45+(%)” value is 13.9% and 7.52% and 6.6% and 9.17% and 14.3% and 13.5% and 15.4%; the “f4/80+ (%)” value is 6.98% and 7.38% and 21.2% and 6.4% and 16.3% and 14.9% and 17.1%; the “gr-1+ (%)” value was 6.98% and 5.74% and 9.62% and 14.5% and 6.12% and 11.4% and 10%; the Il-6 was 2.766 and 2.25 and 1.456 and 1.055 and 1.808 and 1.047. In data set [1], the Il-17 was 3.654 and 3.3461 and 1.6638 and 1.675 and 2.194 and 1.456 and 1.44 and 2.099; the Il-23 is 1.246 and 3.908 and 1.924 and 1.869 and 2.972 and 1.28 and 1.3835 and 2.162; the Mcp1 is 1.522 and 3.593 and 1.038 and 1.619 and 1.9672 and 1.4511; the Tnf-α is 18.081 and 1.569 and 15.9712 and 7.287 and 5.139 and 4.495 and 3.411. For the same compound, in data set [1], the HE is 5 and 10 and 8 and 7 and 9; the “colon length (cm)” value was 5.8 cm and 7.1 cm and 7 cm and 6.3 cm and 6.4 cm and 5.3 cm. In addition, the “No-Observed-Adverse-Effect Level (NOAEL)” value in data set [2] (ref 36 (reply to reviewers)) is 25 to 40 mg/kg/day. The “calculated Acceptable Daily Intake (ADI)” value in data set [2] (ref 37 (reply to reviewers)) is 0.25 to 0.4 mg/kg/day.

Regarding `C1CCc2c(c(N3CCOCC3)nc3sc4c(N5CCNCC5)nnnc4c23)C1` [GUSi, UNC10201652], the “Clostridiales sp. GUS % inhibition” value in data set [3] (GUSi 11.1111 uM) was 28.4771% and 43.1829% and 36.9382%. In addition, the “Clostridiales sp. GUS % inhibition” value in data set [3] (GUSi 33.3333 uM) is 61.452% and 67.3548% and 67.8202%. Moreover, in data set [3] (GUSi 100 uM), the “Clostridiales sp. GUS % inhibition” value is 79.8338% and 82.8373% and 85.2439%. Besides, the IC50 in data set [3] (conversion of TCS-G (200 µM) to TCS, FMN-binding GUS) is 4 ± 1 µM. Further, in data set [4], the IC50 is over 100 µM. The “R. hominis 3 GUS % inhibition” value in data set [4] (GUSi 3.7037 uM, Fig. 4c, triplicate) is 2.389% and -2.0752% and 4.091%. In addition, in data set [4] (setting [9]), the “R. hominis 3 GUS % inhibition” value is 18.9209% and 35.4136%; 33.3333 µM produced 23.2% inhibition. Further, in data set [4] (GUSi 100 uM, Fig. 4c, triplicate), the “R. hominis 3 GUS % inhibition” value is 34.5947% and 39.5508% and 57.3604%. In data set [5] (GUSi 11.1111 uM), this compound registered an inhibition at 11.1111 µM of 57.2%. In data set [5] (GUSi 33.3333 uM), this compound came in with an inhibition at 33.3333 µM of 73.6%. Further, the inhibition at 100 µM in data set [5] (GUSi 100 uM) came out at 84.1%. Further, the “colitis-enhancing effects of TCS with co-administration of GUSi” value in data set [1] (1 mg/kg GUSi via oral gavage, 80 ppm TCS via diet, DSS-induced colitis, all measures) is listed as “eliminated”. Moreover, in data set [1], the “cd45+(%)” value is 3.37% and 1.44% and 2.8% and 3.35% and 3.49% and 6.62% and 4.63% and 3.22%; the “f4/80+ (%)” value was 5.88% and 5.56% and 2.33% and 7.14% and 0% and 1.72%; the “gr-1+ (%)” value was 0% and 2.94% and 5.56% and 1.43% and 2.13%; the Il-6 is 0.5774 and 0.763 and 0.8366 and 0.5822 and 0.577 and 0.6095. In data set [1], the Il-17 was 0.5948 and 0.2298 and 0.792 and 0.6818 and 0.4596 and 0.7005; the Il-23 was 0.7347 and 0.9268 and 1.245 and 0.9397 and 0.6326 and 1.199; the Mcp1 is 0.841 and 0.7995 and 1.048 and 0.7621 and 1.517 and 1.4734 and 0.8163; the Tnf-α is 1.652 and 0.2802 and 0.2939 and 0.2088 and 0.6209 and 0.7192. In data set [1], the HE was 4 and 3 and 6; the “colon length (cm)” value is 6.9 cm and 7.5 cm and 7.1 cm and 7.2 cm and 6.7 cm. The “effect on growth of E. coli” value in data set [6] is on record as “no effect”. Besides, the “effect on the diversity or composition of fecal microbiota” value in data set [7] was “little effect”.

For orientation: IC50 means the midpoint of a concentration-inhibition curve. High values mean weaker potency in that assay, low ones greater potency in that assay. As a reminder, the inhibition is the percentage by which the read-out fell short of the control. A lower inhibition goes with a response near the control.

The record behind these values is publication PMC8748916, “Microbial enzymes induce colitis by reactivating triclosan in the mouse gastrointestinal tract” (Nature Communications, 2022).
